From the kinase profiling compilation of Christmann-Franck et al. (2016)
One block for each compound: values may come before it.

How the values were obtained:
Assay in all cases: radiometric filter-binding kinase assay
ROCK2 (rat) = conditions: accession and sequence are those of the human protein
CHEK2 (human) = CHEK2 (human) (UniProt O96017)
MAP3K7 TAB1 (human) = MAP3K7 TAB1 (human) (UniProt Q15750+O43318)
MAPKAPK5 (human) = MAPKAPK5 (human) (UniProt Q8IW41)
TTK (human) = TTK (human) (UniProt P33981)
CLK2 (human) = CLK2 (human) (UniProt P49760)
[1] = system: SGK1 (human), O00141 [S422D]
IRAK4 (human) = IRAK4 (human) (UniProt Q9NWZ3)
TAOK1 (human) = TAOK1 (human) (UniProt Q7L7X3)
MAPK14 (human) = MAPK14 (human) (UniProt Q16539)
PIM1 (human) = PIM1 (human) (UniProt P11309)
MYLK (human) = MYLK (human) (UniProt Q15746)
EPHA2 (human) = EPHA2 (human) (UniProt P29317)
NEK2 (human) = NEK2 (human) (UniProt P51955)
IKBKE (human) = IKBKE (human) (UniProt Q14164)
MAPKAPK2 (human) = MAPKAPK2 (human) (UniProt P49137)
STK3 (human) = STK3 (human) (UniProt Q13188)
DAPK1 (human) = DAPK1 (human) (UniProt P53355)
EPHB2 (human) = EPHB2 (human) (UniProt P29323)
PIM3 (human) = PIM3 (human) (UniProt Q86V86)
MELK (human) = MELK (human) (UniProt Q14680)
GCK (human) = GCK (human) (UniProt Q12851)
PRKCA (human) = PRKCA (human) (UniProt P17252)
MAPK12 (human) = MAPK12 (human) (UniProt P53778)
FLT1 (human) = FLT1 (human) (UniProt P17948)
PKN2 (human) = PKN2 (human) (UniProt Q16513)
MARK1 (human) = MARK1 (human) (UniProt Q9P0L2)
MARK2 (human) = MARK2 (human) (UniProt Q7KZI7)
DYRK2 (human) = DYRK2 (human) (UniProt Q92630)
EPHB1 (human) = EPHB1 (human) (UniProt P54762)
DYRK3 (human) = DYRK3 (human) (UniProt O43781)
[2] = system: RPS6KB1 (human), P23443 [T412E]
EPHB4 (human) = EPHB4 (human) (UniProt P54760)
HIPK2 (human) = HIPK2 (human) (UniProt Q9H2X6)
RPS6KA1 KD1 KD2 (human) = RPS6KA1 KD1 KD2 (human) (UniProt Q15418)

Sequence of CHEK2 (human) (O96017 whole entry, looked up): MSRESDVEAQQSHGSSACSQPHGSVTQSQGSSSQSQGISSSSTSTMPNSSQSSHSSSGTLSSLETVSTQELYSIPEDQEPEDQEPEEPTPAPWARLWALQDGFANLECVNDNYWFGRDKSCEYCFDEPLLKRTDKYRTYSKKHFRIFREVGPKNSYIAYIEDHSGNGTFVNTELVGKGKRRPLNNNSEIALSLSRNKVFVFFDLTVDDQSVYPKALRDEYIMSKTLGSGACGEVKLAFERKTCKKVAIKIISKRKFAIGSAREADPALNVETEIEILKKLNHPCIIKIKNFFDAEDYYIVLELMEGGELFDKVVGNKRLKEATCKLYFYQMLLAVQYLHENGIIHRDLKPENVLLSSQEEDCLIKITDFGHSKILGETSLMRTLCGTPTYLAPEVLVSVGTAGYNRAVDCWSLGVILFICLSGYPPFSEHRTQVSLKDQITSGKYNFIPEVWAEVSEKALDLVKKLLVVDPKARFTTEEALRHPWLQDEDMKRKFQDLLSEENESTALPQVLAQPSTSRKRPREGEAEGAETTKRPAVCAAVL
Sequence of DYRK2 (human) (Q92630 whole entry, looked up): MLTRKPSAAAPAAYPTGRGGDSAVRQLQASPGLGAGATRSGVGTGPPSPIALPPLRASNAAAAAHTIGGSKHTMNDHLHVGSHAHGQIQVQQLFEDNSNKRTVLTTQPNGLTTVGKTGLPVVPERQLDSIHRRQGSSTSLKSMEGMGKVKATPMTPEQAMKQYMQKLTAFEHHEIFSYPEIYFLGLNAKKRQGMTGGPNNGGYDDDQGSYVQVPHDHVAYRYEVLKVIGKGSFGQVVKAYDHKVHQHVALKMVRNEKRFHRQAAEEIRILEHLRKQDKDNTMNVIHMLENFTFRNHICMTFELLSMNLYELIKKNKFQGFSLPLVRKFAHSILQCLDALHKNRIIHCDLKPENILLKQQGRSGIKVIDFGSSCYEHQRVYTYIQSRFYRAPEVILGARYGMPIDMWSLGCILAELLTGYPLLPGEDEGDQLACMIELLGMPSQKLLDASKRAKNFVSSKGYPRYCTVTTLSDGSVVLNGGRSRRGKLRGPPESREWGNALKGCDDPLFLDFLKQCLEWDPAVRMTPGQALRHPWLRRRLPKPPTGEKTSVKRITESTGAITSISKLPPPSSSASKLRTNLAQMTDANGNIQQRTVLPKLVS
Sequence of MYLK (human) (Q15746 whole entry, looked up): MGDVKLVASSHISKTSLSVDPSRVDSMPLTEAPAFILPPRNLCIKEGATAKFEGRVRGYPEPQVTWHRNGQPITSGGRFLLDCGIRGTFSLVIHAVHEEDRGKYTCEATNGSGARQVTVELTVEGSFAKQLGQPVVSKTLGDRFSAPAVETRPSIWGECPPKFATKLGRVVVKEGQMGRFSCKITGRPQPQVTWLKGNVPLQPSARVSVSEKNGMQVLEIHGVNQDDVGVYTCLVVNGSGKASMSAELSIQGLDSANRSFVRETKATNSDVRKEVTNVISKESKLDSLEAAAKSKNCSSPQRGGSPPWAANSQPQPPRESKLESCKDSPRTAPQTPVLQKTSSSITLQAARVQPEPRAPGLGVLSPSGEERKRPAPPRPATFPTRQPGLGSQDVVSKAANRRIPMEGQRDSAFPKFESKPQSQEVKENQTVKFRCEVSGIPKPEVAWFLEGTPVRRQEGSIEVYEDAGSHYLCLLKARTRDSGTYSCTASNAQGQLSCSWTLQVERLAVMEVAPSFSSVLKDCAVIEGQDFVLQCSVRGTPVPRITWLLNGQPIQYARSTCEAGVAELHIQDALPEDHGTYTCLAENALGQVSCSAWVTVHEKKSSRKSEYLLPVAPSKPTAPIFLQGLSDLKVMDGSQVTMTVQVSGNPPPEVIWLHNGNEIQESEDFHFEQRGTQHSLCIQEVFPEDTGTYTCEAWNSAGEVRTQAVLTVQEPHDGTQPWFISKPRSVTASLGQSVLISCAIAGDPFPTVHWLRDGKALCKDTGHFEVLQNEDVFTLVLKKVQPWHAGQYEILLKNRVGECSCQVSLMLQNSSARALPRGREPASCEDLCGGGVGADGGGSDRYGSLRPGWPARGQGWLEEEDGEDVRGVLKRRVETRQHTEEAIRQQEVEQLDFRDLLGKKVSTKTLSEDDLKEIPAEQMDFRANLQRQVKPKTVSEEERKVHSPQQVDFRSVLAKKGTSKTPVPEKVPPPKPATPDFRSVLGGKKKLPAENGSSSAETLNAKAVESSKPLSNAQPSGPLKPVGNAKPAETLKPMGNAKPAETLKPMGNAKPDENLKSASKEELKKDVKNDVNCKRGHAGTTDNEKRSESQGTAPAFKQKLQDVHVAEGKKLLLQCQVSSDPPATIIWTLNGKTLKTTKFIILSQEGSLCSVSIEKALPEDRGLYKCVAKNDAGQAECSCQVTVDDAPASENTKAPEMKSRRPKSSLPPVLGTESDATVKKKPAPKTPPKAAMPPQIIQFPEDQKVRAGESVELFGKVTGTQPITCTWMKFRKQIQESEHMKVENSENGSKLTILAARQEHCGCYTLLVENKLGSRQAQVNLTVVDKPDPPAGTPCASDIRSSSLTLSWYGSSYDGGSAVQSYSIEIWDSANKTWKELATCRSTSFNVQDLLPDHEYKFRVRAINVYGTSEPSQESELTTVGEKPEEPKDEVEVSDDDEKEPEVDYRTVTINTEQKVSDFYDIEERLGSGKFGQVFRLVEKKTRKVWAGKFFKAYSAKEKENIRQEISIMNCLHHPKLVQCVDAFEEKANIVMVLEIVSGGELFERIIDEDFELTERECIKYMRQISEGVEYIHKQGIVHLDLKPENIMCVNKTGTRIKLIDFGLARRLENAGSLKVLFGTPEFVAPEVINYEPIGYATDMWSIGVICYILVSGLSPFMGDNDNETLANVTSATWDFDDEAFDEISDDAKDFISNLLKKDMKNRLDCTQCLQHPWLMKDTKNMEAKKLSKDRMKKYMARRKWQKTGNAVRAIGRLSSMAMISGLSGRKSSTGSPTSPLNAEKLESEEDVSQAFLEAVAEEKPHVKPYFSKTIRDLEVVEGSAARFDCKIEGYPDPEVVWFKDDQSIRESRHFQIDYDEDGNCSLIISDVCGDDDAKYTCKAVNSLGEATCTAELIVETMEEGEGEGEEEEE
Sequence of EPHB1 (human) (P54762 whole entry, looked up): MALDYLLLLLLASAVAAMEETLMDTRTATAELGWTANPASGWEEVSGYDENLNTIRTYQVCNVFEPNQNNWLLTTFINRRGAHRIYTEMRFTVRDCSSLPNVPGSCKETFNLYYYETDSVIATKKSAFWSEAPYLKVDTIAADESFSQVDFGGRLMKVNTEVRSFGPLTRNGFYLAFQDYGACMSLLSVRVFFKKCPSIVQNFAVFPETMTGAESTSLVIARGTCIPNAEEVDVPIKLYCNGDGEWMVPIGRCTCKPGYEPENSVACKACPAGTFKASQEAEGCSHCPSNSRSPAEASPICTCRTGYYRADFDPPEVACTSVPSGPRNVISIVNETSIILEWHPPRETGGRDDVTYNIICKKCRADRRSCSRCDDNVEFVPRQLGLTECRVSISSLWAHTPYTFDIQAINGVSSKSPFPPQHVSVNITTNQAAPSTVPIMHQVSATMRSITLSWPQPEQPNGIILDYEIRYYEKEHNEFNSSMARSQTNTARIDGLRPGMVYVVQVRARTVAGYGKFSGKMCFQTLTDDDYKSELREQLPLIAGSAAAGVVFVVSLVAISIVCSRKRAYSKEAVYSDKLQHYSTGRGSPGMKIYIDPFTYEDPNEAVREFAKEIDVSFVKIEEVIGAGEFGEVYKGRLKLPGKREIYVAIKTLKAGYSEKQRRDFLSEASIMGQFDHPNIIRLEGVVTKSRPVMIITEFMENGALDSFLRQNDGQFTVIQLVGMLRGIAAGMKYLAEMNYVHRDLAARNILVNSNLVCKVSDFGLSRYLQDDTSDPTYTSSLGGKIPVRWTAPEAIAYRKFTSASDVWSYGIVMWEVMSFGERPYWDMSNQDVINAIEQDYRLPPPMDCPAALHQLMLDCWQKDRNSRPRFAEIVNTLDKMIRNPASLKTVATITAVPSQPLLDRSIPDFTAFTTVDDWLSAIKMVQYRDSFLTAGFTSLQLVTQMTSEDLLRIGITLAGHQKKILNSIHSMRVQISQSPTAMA
Sequence of PIM1 (human) (P11309 whole entry, looked up): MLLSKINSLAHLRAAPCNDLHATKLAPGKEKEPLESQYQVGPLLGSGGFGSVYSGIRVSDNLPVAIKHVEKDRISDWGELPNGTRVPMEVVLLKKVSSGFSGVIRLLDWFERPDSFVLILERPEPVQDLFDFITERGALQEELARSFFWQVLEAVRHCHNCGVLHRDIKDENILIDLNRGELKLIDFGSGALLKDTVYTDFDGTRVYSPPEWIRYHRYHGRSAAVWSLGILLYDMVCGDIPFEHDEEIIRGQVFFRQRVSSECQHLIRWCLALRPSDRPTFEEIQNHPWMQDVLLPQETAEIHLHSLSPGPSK

residual activity (ROCK2 (rat); compound 0.1 µM): 91% | residual activity (ROCK2 (rat); compound 1.0 µM): 81% | residual activity (CHEK2 (human); compound 0.1 µM): 105% | residual activity (CHEK2 (human); compound 1.0 µM): 72% | residual activity (MAP3K7 TAB1 (human); compound 0.1 µM): 96% | residual activity (MAP3K7 TAB1 (human); compound 1.0 µM): 57% | residual activity (MAPKAPK5 (human); compound 0.1 µM): 104% | residual activity (MAPKAPK5 (human); compound 1.0 µM): 122% | residual activity (TTK (human); compound 0.1 µM): 94% | residual activity (TTK (human); compound 1.0 µM): 74% | residual activity (CLK2 (human); compound 0.1 µM): 63% | residual activity (CLK2 (human); compound 1.0 µM): 21% | residual activity ([1]; compound 0.1 µM): 81% | residual activity ([1]; compound 1.0 µM): 94% | residual activity (IRAK4 (human); compound 0.1 µM): 95% | residual activity (IRAK4 (human); compound 1.0 µM): 83% | residual activity (TAOK1 (human); compound 0.1 µM): 78% | residual activity (TAOK1 (human); compound 1.0 µM): 71% | residual activity (MAPK14 (human); compound 0.1 µM): 100% | residual activity (MAPK14 (human); compound 1.0 µM): 107% | residual activity (PIM1 (human); compound 0.1 µM): 114% | residual activity (PIM1 (human); compound 1.0 µM): 120% | residual activity (MYLK (human); compound 0.1 µM): 87% | residual activity (MYLK (human); compound 1.0 µM): 103% | residual activity (EPHA2 (human); compound 0.1 µM): 95% | residual activity (EPHA2 (human); compound 1.0 µM): 98% | residual activity (NEK2 (human); compound 0.1 µM): 107% | residual activity (NEK2 (human); compound 1.0 µM): 97% | residual activity (IKBKE (human); compound 0.1 µM): 34% | residual activity (IKBKE (human); compound 1.0 µM): 23% | residual activity (MAPKAPK2 (human); compound 0.1 µM): 106% | residual activity (MAPKAPK2 (human); compound 1.0 µM): 114% | residual activity (STK3 (human); compound 0.1 µM): 110% | residual activity (STK3 (human); compound 1.0 µM): 129% | residual activity (DAPK1 (human); compound 0.1 µM): 84% | residual activity (DAPK1 (human); compound 1.0 µM): 72% | residual activity (EPHB2 (human); compound 0.1 µM): 88% | residual activity (EPHB2 (human); compound 1.0 µM): 78% | residual activity (PIM3 (human); compound 0.1 µM): 104% | residual activity (PIM3 (human); compound 1.0 µM): 111% | residual activity (MELK (human); compound 0.1 µM): 43% | residual activity (MELK (human); compound 1.0 µM): 26% | residual activity (GCK (human); compound 0.1 µM): 77% | residual activity (GCK (human); compound 1.0 µM): 64% | residual activity (PRKCA (human); compound 0.1 µM): 79% | residual activity (PRKCA (human); compound 1.0 µM): 93% | residual activity (MAPK12 (human); compound 0.1 µM): 88% | residual activity (MAPK12 (human); compound 1.0 µM): 85% | residual activity (FLT1 (human); compound 0.1 µM): 87% | residual activity (FLT1 (human); compound 1.0 µM): 74% | residual activity (PKN2 (human); compound 0.1 µM): 87% | residual activity (PKN2 (human); compound 1.0 µM): 66% | residual activity (MARK1 (human); compound 0.1 µM): 16% | residual activity (MARK1 (human); compound 1.0 µM): 9% | residual activity (MARK2 (human); compound 0.1 µM): 27% | residual activity (MARK2 (human); compound 1.0 µM): 10% | residual activity (DYRK2 (human); compound 0.1 µM): 92% | residual activity (DYRK2 (human); compound 1.0 µM): 101% | residual activity (EPHB1 (human); compound 0.1 µM): 107% | residual activity (EPHB1 (human); compound 1.0 µM): 108% | residual activity (DYRK3 (human); compound 0.1 µM): 91% | residual activity (DYRK3 (human); compound 1.0 µM): 101% | residual activity ([2]; compound 0.1 µM): 101% | residual activity ([2]; compound 1.0 µM): 101% | residual activity (EPHB4 (human); compound 0.1 µM): 101% | residual activity (EPHB4 (human); compound 1.0 µM): 117% | residual activity (HIPK2 (human); compound 0.1 µM): 95% | residual activity (HIPK2 (human); compound 1.0 µM): 95% | residual activity (RPS6KA1 KD1 KD2 (human); compound 0.1 µM): 73% | residual activity (RPS6KA1 KD1 KD2 (human); compound 1.0 µM): 34%
Compound: O=C(NCCCNc1nc(Nc2cccc(CN3CCOCC3)c2)ncc1C1CC1)C1CCC1

residual activity (ROCK2 (rat); compound 1.0 µM): 84% | residual activity (CHEK2 (human); compound 1.0 µM): 95% | residual activity (CHEK2 (human); compound 10.0 µM): 114% | residual activity (MAP3K7 TAB1 (human); compound 1.0 µM): 77% | residual activity (MAP3K7 TAB1 (human); compound 10.0 µM): 82% | residual activity (MAPKAPK5 (human); compound 1.0 µM): 98% | residual activity (MAPKAPK5 (human); compound 10.0 µM): 99% | residual activity (TTK (human); compound 1.0 µM): 98% | residual activity (TTK (human); compound 10.0 µM): 121% | residual activity (CLK2 (human); compound 1.0 µM): 103% | residual activity (CLK2 (human); compound 10.0 µM): 85% | residual activity ([1]; compound 1.0 µM): 69% | residual activity ([1]; compound 10.0 µM): 74% | residual activity (IRAK4 (human); compound 1.0 µM): 81% | residual activity (IRAK4 (human); compound 10.0 µM): 100% | residual activity (TAOK1 (human); compound 1.0 µM): 101% | residual activity (TAOK1 (human); compound 10.0 µM): 109% | residual activity (MAPK14 (human); compound 1.0 µM): 96% | residual activity (MAPK14 (human); compound 10.0 µM): 97% | residual activity (PIM1 (human); compound 1.0 µM): 92% | residual activity (PIM1 (human); compound 10.0 µM): 73% | residual activity (MYLK (human); compound 10.0 µM): 98% | residual activity (EPHA2 (human); compound 1.0 µM): 86% | residual activity (EPHA2 (human); compound 10.0 µM): 94% | residual activity (NEK2 (human); compound 1.0 µM): 97% | residual activity (NEK2 (human); compound 10.0 µM): 102% | residual activity (IKBKE (human); compound 1.0 µM): 103% | residual activity (IKBKE (human); compound 10.0 µM): 111% | residual activity (MAPKAPK2 (human); compound 1.0 µM): 103% | residual activity (MAPKAPK2 (human); compound 10.0 µM): 102% | residual activity (STK3 (human); compound 1.0 µM): 83% | residual activity (STK3 (human); compound 10.0 µM): 70% | residual activity (DAPK1 (human); compound 1.0 µM): 96% | residual activity (DAPK1 (human); compound 10.0 µM): 90% | residual activity (EPHB2 (human); compound 1.0 µM): 64% | residual activity (EPHB2 (human); compound 10.0 µM): 74% | residual activity (PIM3 (human); compound 1.0 µM): 78% | residual activity (PIM3 (human); compound 10.0 µM): 72% | residual activity (MELK (human); compound 1.0 µM): 81% | residual activity (MELK (human); compound 10.0 µM): 97% | residual activity (GCK (human); compound 1.0 µM): 90% | residual activity (PRKCA (human); compound 1.0 µM): 100% | residual activity (PRKCA (human); compound 10.0 µM): 108% | residual activity (MAPK12 (human); compound 1.0 µM): 91% | residual activity (MAPK12 (human); compound 10.0 µM): 98% | residual activity (FLT1 (human); compound 10.0 µM): 39% | residual activity (PKN2 (human); compound 1.0 µM): 82% | residual activity (PKN2 (human); compound 10.0 µM): 83% | residual activity (MARK1 (human); compound 1.0 µM): 85% | residual activity (MARK1 (human); compound 10.0 µM): 85% | residual activity (MARK2 (human); compound 1.0 µM): 104% | residual activity (MARK2 (human); compound 10.0 µM): 103% | residual activity (DYRK2 (human); compound 1.0 µM): 99% | residual activity (DYRK2 (human); compound 10.0 µM): 107% | residual activity (EPHB1 (human); compound 1.0 µM): 95% | residual activity (EPHB1 (human); compound 10.0 µM): 115% | residual activity (DYRK3 (human); compound 1.0 µM): 85% | residual activity (DYRK3 (human); compound 10.0 µM): 85% | residual activity ([2]; compound 1.0 µM): 97% | residual activity ([2]; compound 10.0 µM): 81% | residual activity (EPHB4 (human); compound 1.0 µM): 90% | residual activity (EPHB4 (human); compound 10.0 µM): 99% | residual activity (HIPK2 (human); compound 1.0 µM): 93% | residual activity (HIPK2 (human); compound 10.0 µM): 104% | residual activity (RPS6KA1 KD1 KD2 (human); compound 1.0 µM): 102% | residual activity (RPS6KA1 KD1 KD2 (human); compound 10.0 µM): 102%
Compound: O=C(NOC[C@H](O)CO)c1ccc(F)c(F)c1Nc1ccc(I)cc1Cl
